What all share (assay): NCI tumour cell line growth inhibition, 48 h
Assay [1] relates to SR leukemia.
The subject of assay [2] is DU-145 prostate.
The subject of assay [3] is T-47D breast.
Assay [4] relates to PC-3 prostate.
In assay [5] the test system is HS 578T breast.
In assay [6] the test system is MDA-N.
For assay [7], the system named is MDA-MB-231 breast.
Assay [8] relates to M19-MEL melanoma.
In assay [9] the test system is XF 498 CNS.
The test system of assay [10] is KM20L2 colon.
Assay [11] deals with P388/ADR leukemia.
Assay [12] relates to SN12K1 renal.
Assay [13] relates to P388 leukemia.
Assay [14] has as its system MDA-MB-435.
In assay [15] the test system is RXF-631 renal.
The subject of assay [16] is LXFL 529 NSCLC.

Our source for the TGI and GI50 values is PubChem BioAssay (NCI).

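Briefly, cells in 96-well plates were exposed to five compound concentrations for 48 h, and endpoints were estimated by linear interpolation. Abbreviation: GI50, concentration required for 50% inhibition of growth. The concentration for full growth arrest is given as TGI.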

For the compound `O=C(O)Cc1ccc(N2N=C(c3ccccc3)CC2=O)cc1`, the TGI in [1], in assay [2], in assay [3], in assay [4], in assay [5] and in [6] was greater than 100 µM throughout. Moreover, in assay [7], the TGI was greater than 100 µM.
`[Cl-].[Rh+3].c1ccc(-c2ccnc3c2ccc2c(-c4ccccc4)ccnc23)cc1.c1ccc(-c2ccnc3c2ccc2c(-c4ccccc4)ccnc23)cc1.c1ccc(-c2ccnc3c2ccc2c(-c4ccccc4)ccnc23)cc1`: the TGI in assay [8] is greater than 86.2 µM; in [9], 89.3 µM; in assay [10] it was greater than 100 µM; in assay [11], greater than 100 µM; in assay [12], greater than 87.2 µM; in [13], greater than 71 µM. Besides, the GI50 in assay [9] is 23.1 µM; in assay [11], 23.7 µM; in assay [12], 29.7 µM; in assay [13], 24.7 µM.
As to `CN(C)CCNCc1c2ccccc2c(CNCCN(C)C)c2ccccc12`, the TGI is greater than 57.1 µM in assay [8]; greater than 100 µM in assay [9]; 26 µM in [10]; greater than 100 µM in assay [11]; 67.6 µM in [12]; greater than 56.2 µM in assay [13].
For `C/C=C(/C)C(=O)O[C@@H]1c2c(C)coc2C[C@H]2CC[C@H](O)[C@H](C)[C@]21C`, the TGI in assay [1], in assay [2], in [3], in assay [4], in [5] and in assay [14] was greater than 100 µM in each case. For the same compound, the TGI in assay [6] and in assay [7] was greater than 100 µM each time.
With `COc1ccc(/C(Cl)=C(\C=O)c2ccc(F)cc2)cc1`, the TGI in assay [8] was 79.4 µM; in [15], 80.6 µM; in assay [10], 20.5 µM; in assay [16] it was 61.6 µM.
For the compound `C=CC1OC(CCCOC(=O)C(C)(C)C)O[C@@H]1CC` (stereo partly specified), the TGI in assay [1], in [2], in [3], in assay [4], in assay [5] and in assay [14] was greater than 100 µM in each case. Further, the TGI in assay [6] and in assay [7] was greater than 100 µM in each case.
For `C=C(C)C1Cc2c(cc(O)c3c(=O)c4ccccc4n(C)c23)O1` (stereo unspecified), the TGI was greater than 100 µM in assay [1]; 41.8 µM in [9]; greater than 100 µM in assay [15]; greater than 100 µM in [10]; greater than 100 µM in assay [16].
Take `O=[N+]([O-])c1ccc(/C=C/c2ccc(N=Nc3ccc(/C=C/c4ccc([N+](=O)[O-])cc4S(=O)(=O)O)c(S(=O)(=O)O)c3)cc2S(=O)(=O)O)c(S(=O)(=O)O)c1`: the TGI in assay [8], in [9], in [11], in [12] and in assay [13] was greater than 100 µM in each case.
For `CC(C)(C)OC(=O)C1=C(C(=O)OC(C)(C)C)SC2(S1)C(C(=O)OC(C)(C)C)=C(C(=O)OC(C)(C)C)Sc1c2ssc1=O`, the TGI in assay [2], in [3], in assay [4], in [5], in assay [14] and in assay [6] was greater than 100 µM in each case. The TGI in assay [7] was greater than 100 µM.
Turning to `COC(=O)[C@@H]1c2cc3c(c(O)c2[C@@H](OC)C[C@@]1(C)O)C(=O)c1c(O)cc2c(c1C3=O)OC1O[C@@]2(C)[C@H](O)[C@@H](N(C)C)[C@@H]1O`, the TGI in [8] turned out to be 0.88 µM; in assay [9], 0.66 µM; in assay [10] it was 0.794 µM; in [11], 15 µM; in assay [12], 1.41 µM; in assay [13], 2.36 µM.
